Key:
α-amylase = assay: In vitro α-amylase inhibitory assay; conditions: for IC50: read-out: The α-amylase activity: IC50 ± SD, DF = 100
α-glucosidase = assay: In vitro α-glucosidase inhibitory assay; type: biochemical; conditions: for α-Glucosidase activity: IC50 ± SD: DF = 100, five concentrations 10, 5, 1, 0.1, 0.01 μg mL^−1
[1] = target: T1, Human PPAR-γ (Peroxisome Proliferator-Activated Receptor Gamma) (Homo sapiens, UniProt P37231); assay: In vitro PPAR-γ transactivation assay; type: biochemical; conditions: for PPAR-γ Folds: folds compared to Pioglitazone (= 1)
T1 sequence (P37231 1-505): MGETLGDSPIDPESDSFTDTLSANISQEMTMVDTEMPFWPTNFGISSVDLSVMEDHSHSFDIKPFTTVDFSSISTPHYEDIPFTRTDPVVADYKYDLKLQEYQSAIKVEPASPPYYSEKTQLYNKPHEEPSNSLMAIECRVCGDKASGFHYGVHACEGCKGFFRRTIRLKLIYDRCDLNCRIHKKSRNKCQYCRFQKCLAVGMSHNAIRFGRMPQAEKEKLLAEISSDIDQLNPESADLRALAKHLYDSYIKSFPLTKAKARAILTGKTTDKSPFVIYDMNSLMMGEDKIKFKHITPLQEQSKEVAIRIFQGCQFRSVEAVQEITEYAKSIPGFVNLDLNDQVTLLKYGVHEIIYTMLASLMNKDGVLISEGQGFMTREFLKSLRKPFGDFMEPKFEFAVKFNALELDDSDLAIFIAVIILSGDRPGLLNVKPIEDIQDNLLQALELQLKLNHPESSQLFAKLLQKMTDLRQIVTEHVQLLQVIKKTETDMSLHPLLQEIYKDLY

SMILES | The α-amylase activity: Inhibitory percentage at 100 μg mL^−1 (α-amylase) | IC50 (α-amylase) | α-Glucosidase activity: Inhibitory potential at 10 μg mL^−1 (α-glucosidase) | α-Glucosidase activity: IC50 ± SD (α-glucosidase) | IC50 [1] | PPAR-γ Folds [1] | Increase of α-amylase inhibitory potency, fold (α-amylase; compound 2 relative to derivative 3)
CCOC(=O)c1ccc(NC(=O)c2cc3cc(S(N)(=O)=O)ccc3oc2=O)cc1 [Compound 9, Ethyl 4-(2-oxo-6-sulfamoyl-2H-chromene-3-carboxamido)benzoate] | 96.6% | 1.08 ± 0.02 µM | 83.8% | 2.44 ± 0.09 µg/mL | 8.9 µM | ~1.32 | 
C[C@H]1O[C@H](O[C@H]2[C@H](O)[C@@H](O)[C@@H](O[C@H]3[C@H](O)[C@@H](O)C(O)O[C@@H]3CO)O[C@@H]2CO)[C@H](O)[C@@H](O)[C@@H]1N[C@H]1C=C(CO)[C@@H](O)[C@H](O)[C@H]1O (stereo partly drawn) [Acarbose, reference compound] | 96.5% |  | 90.1% |  |  |  | 
N#Cc1cc2cc(S(N)(=O)=O)ccc2oc1=N [Compound 2, 3-Cyano-2-imino-2H-chromene-6-sulfonamide] | 96.1% | 1.76 ± 0.01 µM | 90.7% | 0.548 ± 0.02 µg/mL | 12.6 µM | ~1.55 | ~8.31 fold
NS(=O)(=O)c1ccc2oc(=O)c(C(=O)Nc3cccc(C(F)(F)F)c3)cc2c1 [Compound 7, 2-Oxo-6-sulfamoyl-N-(3-(trifluoromethyl)phenyl)-2H-chromene-3-carboxamide] | 96.2% | 4.39 ± 0.06 µM |  |  |  |  | 

Now from value to molecule:

The α-amylase activity: Inhibitory percentage at 100 μg mL^−1 (α-amylase) | IC50 (α-amylase) | α-Glucosidase activity: Inhibitory potential at 10 μg mL^−1 (α-glucosidase) | α-Glucosidase activity: IC50 ± SD (α-glucosidase) | IC50 [1] | PPAR-γ Folds [1] | Increase of α-amylase inhibitory potency, fold (α-amylase; compound 2 relative to derivative 3) | SMILES
95.4% | 2.11 ± 0.03 µM |  |  |  |  |  | NS(=O)(=O)c1ccc2oc(=O)c(C(=O)Nc3ccc(F)cc3)cc2c1 [Compound 6, N-(4-fluorophenyl)-2-oxo-6-sulfamoyl-2H-chromene-3-carboxamide]
96% | 14.6 ± 0.16 µM |  |  |  |  |  | N#CC(C#N)=C(N)c1cc2cc(S(N)(=O)=O)ccc2oc1=N [Compound 3, 3-(1-Amino-2,2-dicyanovinyl)-2-imino-2H-chromene-6-sulfonamide]
93.4% | 32.6 ± 0.33 µM |  |  |  |  |  | CCOC(=O)c1cc2cc(S(N)(=O)=O)ccc2oc1=O [Compound 5, Ethyl 2-oxo-6-sulfamoyl-2H-chromene-3-carboxylate]
95.4% | 4.23 ± 0.06 µM |  |  |  |  |  | NS(=O)(=O)c1ccc2oc(=O)c(C(=O)Nc3ccc(Cl)cc3)cc2c1 [Compound 8, N-(4-chlorophenyl)-2-oxo-6-sulfamoyl-2H-chromene-3-carboxamide]
94.2% | 8.55 ± 0.31 µM |  |  |  |  |  | CC(=O)c1cc2cc(S(N)(=O)=O)ccc2oc1=O [Compound 4, 3-Acetyl-2-oxo-2H-chromene-6-sulfonamide]
